# Results taken from ChEMBL document CHEMBL4351025, “Indole-nitroimidazole conjugates as efficient manipulators to decrease the genes expression of methicillin-resistant Staphylococcus aureus” (Eur J Med Chem, 2019).
# Experiments:
# Staphylococcus aureus [1] = assay: Antibacterial activity against methicillin-resistant Staphylococcus aureus N315 incubated for 24 hrs by two fold serial dilution method; assay type: functional; settings: N315, 24 h
# Escherichia coli = assay: Antibacterial activity against Escherichia coli incubated for 24 hrs by two fold serial dilution method; assay type: functional
# Klebsiella pneumoniae = assay: Antibacterial activity against Klebsiella pneumoniae incubated for 24 hrs by two fold serial dilution method; assay type: functional
# Acinetobacter baumannii = assay: Antibacterial activity against Acinetobacter baumannii incubated for 24 hrs by two fold serial dilution method; assay type: functional
# Enterococcus faecalis = assay: Antibacterial activity against Enterococcus faecalis incubated for 24 hrs by two fold serial dilution method; assay type: functional
# Staphylococcus aureus [2] = assay: Antibacterial activity against Staphylococcus aureus ATCC 29213 incubated for 24 hrs by two fold serial dilution method; assay type: functional; settings: ATCC 29213, 24 h
# Pseudomonas aeruginosa = assay: Antibacterial activity against Pseudomonas aeruginosa incubated for 24 hrs by two fold serial dilution method; assay type: functional
# [3] = Cytotoxicity activity against human A549 cells assessed as cell viability at 2 to 64 ug/ml incubated for 24 hrs by MTT assay relative to control; assay type: cell-based; settings: read-out: Activity
smiles,measurement,setting,value
C#CCn1cc(/C=C(/C(C)=O)n2cc([N+](=O)[O-])nc2C)c2ccccc21,MIC,Staphylococcus aureus [1],2 µg/mL
same,MIC,Escherichia coli,512 µg/mL
same,MIC,Klebsiella pneumoniae,128 µg/mL
same,MIC,Acinetobacter baumannii,128 µg/mL
same,MIC,Enterococcus faecalis,32 µg/mL
same,MIC,Staphylococcus aureus [2],128 µg/mL
same,MIC,Pseudomonas aeruginosa,128 µg/mL
CC(=O)/C(=C/c1cn(CC(=O)N2CCN(Cc3ccc(Cl)cc3Cl)CC2)c2ccccc12)n1cc([N+](=O)[O-])nc1C,MIC,Staphylococcus aureus [1],64 µg/mL
same,MIC,Escherichia coli,512 µg/mL
same,MIC,Klebsiella pneumoniae,128 µg/mL
same,MIC,Acinetobacter baumannii,256 µg/mL
same,MIC,Enterococcus faecalis,128 µg/mL
same,MIC,Staphylococcus aureus [2],256 µg/mL
same,MIC,Pseudomonas aeruginosa,256 µg/mL
CCN(CC)C(=O)Cn1cc(/C=C(/C(C)=O)n2cc([N+](=O)[O-])nc2C)c2ccc(C)cc21,MIC,Staphylococcus aureus [1],4 µg/mL
same,MIC,Escherichia coli,128 µg/mL
same,MIC,Klebsiella pneumoniae,512 µg/mL
same,MIC,Acinetobacter baumannii,512 µg/mL
same,MIC,Enterococcus faecalis,64 µg/mL
same,MIC,Staphylococcus aureus [2],16 µg/mL
same,MIC,Pseudomonas aeruginosa,128 µg/mL
CC(=O)/C(=C/c1cn(CC(=O)N2CCN(Cc3ccc(F)cc3)CC2)c2cc(C)ccc12)n1cc([N+](=O)[O-])nc1C,MIC,Staphylococcus aureus [1],2 µg/mL
same,MIC,Escherichia coli,512 µg/mL
same,MIC,Klebsiella pneumoniae,512 µg/mL
same,MIC,Acinetobacter baumannii,512 µg/mL
same,MIC,Enterococcus faecalis,64 µg/mL
same,MIC,Staphylococcus aureus [2],512 µg/mL
same,MIC,Pseudomonas aeruginosa,128 µg/mL
NC1CCN(c2c(F)cc3c(=O)c(C(=O)O)cn(C4CC4)c3c2Cl)C1 (stereo unspecified) [CLINAFLOXACIN],MIC,Staphylococcus aureus [1],16 µg/mL
same,MIC,Escherichia coli,64 µg/mL
same,MIC,Klebsiella pneumoniae,32 µg/mL
same,MIC,Acinetobacter baumannii,16 µg/mL
same,MIC,Enterococcus faecalis,2 µg/mL
same,MIC,Staphylococcus aureus [2],0.5 µg/mL
same,MIC,Pseudomonas aeruginosa,32 µg/mL
COc1cccc2c1C(=O)c1c(O)c3c(c(O)c1C2=O)C[C@@](O)(C(=O)CO)C[C@@H]3O[C@H]1C[C@H](N)[C@H](O)[C@H](C)O1 [DOXORUBICIN],viability at 24 h,[3],< 75%
CC(=O)/C(=C/c1cn(CC(=O)N2CCCC2)c2ccccc12)n1cc([N+](=O)[O-])nc1C,MIC,Staphylococcus aureus [1],64 µg/mL
same,MIC,Escherichia coli,8 µg/mL
same,MIC,Klebsiella pneumoniae,16 µg/mL
same,MIC,Acinetobacter baumannii,1 µg/mL
same,MIC,Enterococcus faecalis,64 µg/mL
same,MIC,Staphylococcus aureus [2],64 µg/mL
same,MIC,Pseudomonas aeruginosa,2 µg/mL
CC(=O)/C(=C/c1cn(CC(=O)N2CCCCC2)c2cc(C)ccc12)n1cc([N+](=O)[O-])nc1C,MIC,Staphylococcus aureus [1],1 µg/mL
same,MIC,Escherichia coli,256 µg/mL
same,MIC,Klebsiella pneumoniae,32 µg/mL
same,MIC,Acinetobacter baumannii,256 µg/mL
same,MIC,Enterococcus faecalis,128 µg/mL
same,MIC,Staphylococcus aureus [2],16 µg/mL
same,MIC,Pseudomonas aeruginosa,32 µg/mL
CC(=O)/C(=C/c1cn(CC(=O)N2CCCCC2)c2cc(Cl)ccc12)n1cc([N+](=O)[O-])nc1C,MIC,Staphylococcus aureus [1],64 µg/mL
same,MIC,Escherichia coli,64 µg/mL
same,MIC,Klebsiella pneumoniae,64 µg/mL
same,MIC,Acinetobacter baumannii,512 µg/mL
same,MIC,Enterococcus faecalis,4 µg/mL
same,MIC,Staphylococcus aureus [2],512 µg/mL
same,MIC,Pseudomonas aeruginosa,256 µg/mL
CCn1cc(C(=O)O)c(=O)c2cc(F)c(N3CCNCC3)cc21 [NORFLOXACIN],MIC,Staphylococcus aureus [1],8 µg/mL
same,MIC,Escherichia coli,16 µg/mL
same,MIC,Klebsiella pneumoniae,4 µg/mL
same,MIC,Acinetobacter baumannii,8 µg/mL
same,MIC,Enterococcus faecalis,4 µg/mL
same,MIC,Staphylococcus aureus [2],2 µg/mL
same,MIC,Pseudomonas aeruginosa,2 µg/mL
CC(=O)/C(=C/c1cn(CC(=O)N2CCOCC2)c2ccccc12)n1cc([N+](=O)[O-])nc1C,MIC,Staphylococcus aureus [1],2 µg/mL
same,MIC,Escherichia coli,32 µg/mL
same,MIC,Klebsiella pneumoniae,16 µg/mL
same,MIC,Acinetobacter baumannii,256 µg/mL
same,MIC,Enterococcus faecalis,32 µg/mL
same,MIC,Staphylococcus aureus [2],64 µg/mL
same,MIC,Pseudomonas aeruginosa,128 µg/mL
